From patent US20250270579A1, “PLANTS WITH ALTERED ROOT AND SHOOT ARCHITECTURE AND METHODS FOR OBTAINING AND USING SAME” (IOWA STATE UNIVERSITY RESEARCH FOUNDATION, INC., priority 2024, published 2025)

What was measured:
maize primary roots [1] = experiment: In vivo auxin accumulation assay in dissected primary roots; set-up: species or system Zea mays
Procedure: In vivo auxin transport assays. Auxin accumulation assays were performed as previously described (Strader and Bartel, “The Arabidopsis PLEIOTROPIC DRUG RESISTANCE8/ABCG36 ATP Binding Cassette Transporter Modulates Sensitivity to the Auxin Precursor Indole-3-Butyric Acid,” The Plant Cell 21:1992-2007 (2009), which is hereby incorporated by reference in its entirety). […] Sections were equilibrated in 40 μL of uptake buffer (20 mM MES, 10 mM sucrose, and 0.5 mM CaSO4, pH 5.6) for 30 minutes at room temperature (RT). 40 μL of 50 nM 3H-IAA was added to each sample and incubated at RT for 1 hour. Samples were rinsed 3 times with […] of uptake buffer. 3H-IAA in tissue samples was measured using a scintillation counter as previously described (Strader and Bartel, “The Arabidopsis PLEIOTROPIC DRUG RESISTANCE8/ABCG36 ATP Binding Cassette Transporter Modulates Sensitivity to the Auxin Precursor Indole-3-Butyric Acid,” The Plant Cell 21:1992-2007 (2009), which is hereby incorporated by reference in its entirety). Samples were moved to scintillation vials containing CytoScint (MP Biomedicals) and disintegrations per minute (DPM) were measured using a scintillation counter (Beckman Coulter LS-6500).

ZmPILS6 = experiment: Auxin transport assay in yeast expressing ZmPILS6; assay type: cell-based, Zea mays; conditions: yeast expressing ZmPILS6 compared to empty vector control
Procedure: Auxin transport assays in yeast. Transport assays of radiolabeled indole-3-acetic acid (^3H-IAA) were performed as previously described (Michniewicz, et al., “Transporter of IBA1 Links Auxin and Cytokinin to Influence Root Architecture,” Developmental Cell 50:599-609.e4 (2019), which is hereby incorporated by reference in its entirety). Briefly, pCC13 was transformed into Saccharomyces cerevisiae strain JBY575. Single yeast colonies were grown in liquid-URA selective media overnight at 30° C. Yeast were resuspended in 0.1M MES (pH 4.6) with 2% dextrose to an OD600 of 5. 100 μL of resuspended cells were added to a 1.5 mL Eppendorf tube and added 100 μL of 50 nM 3H-IAA and incubated at RT for 30 minutes. Yeast cells were centrifuged for 15 seconds before removing the supernatant and washing 3 times with MES solution. Cells were resuspended in 100 μL of MES buffer and ^3H-IAA was measured using a scintillation counter. For each plasmid expressing yeast, 12 biological replicates were statistically analyzed using a t test.

maize primary roots [2] = experiment: Auxin response assay (rolled towel), primary root length; assay type: in vivo, Zea mays; conditions: pils6-1 and pils6-3 roots compared to W22 and B73, 10 μM IAA
Procedure: Auxin response assays were performed using the rolled towel assay as previously described (Draves, “Maize Seedling Growth and Hormone Response Assays Using the Rolled Towel Method,” Current Protocols 2: e562 (2022), which is hereby incorporated by reference in its entirety) using 20-40 biological replicates per genotype and treatment. Maize kernels were surface sterilized with 6% bleach and planted on germination paper and placed vertically in a 2-L beaker with 600 mL of 0.5×Linsmaier and Skoog (LS) media. Seedlings were grown for 3 days after germination (DAG) and then treated with 10 μM indole-3-acetic acid (IAA) or an equal volume 95% ethanol for 7 additional days.

maize primary roots [3] = experiment: Proteomic profiling of maize roots with and without auxin treatment; assay type: in vivo, Zea mays; conditions: 10 μM IAA
Procedure: For proteomics analysis, W22 and pils6-1 kernels were surface sterilized and planted in rolled towels as described above. Two days after planting, ungerminated kernels were removed from the assay. Five-day-old seedlings were removed from the rolled towels and floated on 0.5×LS media supplemented with 10 μM IAA in 0.5×LS or an equal volume of 95% ethanol in 0.5×LS for 1 hour. For each biological replicate, total root tissue from 5 seedlings was excised using a scalpel and pooled prior to flash freezing in liquid nitrogen. Three biological replicates were generated per genotype and treatment.
Proteomics. Protein extraction and peptide generation. Protein extraction and peptide digestion was performed as previously described (Song et al., “Heterotrimeric G-Protein-Dependent Proteome and Phosphoproteome in Unstimulated Arabidopsis Roots,” Proteomics 18: e1800323 (2018), which is hereby incorporated by reference in its entirety). Briefly, total protein was extracted from […] of 5-day-old primary root tissue (W22 and pils6-1) using the phenol-FASP method as previously detailed (Song et al., “Assessment and Refinement of Sample Preparation Methods for Deep and Quantitative Plant Proteome Profiling,” Proteomics 18: e1800220 (2018); Song et al., “Quantitative Profiling of Protein Abundance and Phosphorylation State in Plant Tissues Using Tandem Mass Tags” in Plant Proteomics: Methods and Protocols, Methods in Molecular Biology., J. V. Jorrin-Novo, L. Valledor, M. A. Castillejo, M.-D. Rey, Eds., pp. 147-156 (Springer US, 2020), each of which is hereby incorporated by reference in its entirety). […] Peptide amounts were quantified using the Pierce BCA Protein assay kit […]

| Compound | 3H-IAA accumulation in the elongation zone (maize primary roots [1]; pils6-1 roots (absence of ZmPILS6) compared to W22) | 3H-IAA accumulation in the stele (maize primary roots [1]; pils6-1 roots compared to W22) | 3H-IAA accumulation in yeast cells (ZmPILS6) | sensitivity of primary root length to exogenous IAA (maize primary roots [2]) | proteins with altered abundance in response to IAA treatment (maize primary roots [3]; W22 roots, 1 hour) [proteins] | proteins auxin-induced in W22 that are auxin-repressed in pils6-1 (maize primary roots [3]; W22 vs pils6-1 roots) [proteins] | auxin-responsive proteins (maize primary roots [3]; pils6-1 roots, 1 hour) [proteins] |
| --- | --- | --- | --- | --- | --- | --- | --- |
| O=C(O)Cc1c[nH]c2ccccc12 [3H-IAA] | hyperaccumulates | hypo-accumulates | significant decrease |  |  |  |  |
| O=C(O)Cc1c[nH]c2ccccc12 [IAA, indole-3-acetic acid] |  |  |  | less sensitive | 178 | 11 | 9 |
